The values below come from patent publication US12043600B2, “Microbiocidal compounds” (SYNGENTA CROP PROTECTION AG, priority 2018, dated 2024).

SMILES strings stand for the structures.

In data set [1] the test system is Botryotinia fuckeliana (Botrytis cinerea). Put plainly: Botryotinia fuckeliana (Botrytis cinerea)/Liquid Culture (Gray Mould). The class given is cell-based. Conditions: liquid culture, compared to untreated control. The method, then: Conidia of the fungus from cryogenic storage are directly mixed into nutrient broth (Vogels broth). After placing a (DMSO) solution of test compound into a microtiter plate (96-well format), the nutrient broth containing the fungal spores is added.

Data set [2] has as its system Glomerella lagenarium (Colletotrichum lagenarium). Briefly: Glomerella lagenarium (Colletotrichum lagenarium)/Liquid Culture (Anthracnose). The class given is cell-based. Conditions: Colletotrichum orbiculare, liquid culture, compared to untreated control.
Data set [3] relates to Blumeria graminis f. sp. tritici (Erysiphe graminis f. sp. tritici). Put plainly: Blumeria graminis f. sp. tritici/Wheat/Leaf Disc Preventative (Powdery Mildew on Wheat). Format: in vivo. Conditions: foliar, wheat leaf disc preventative, compared to untreated control. The method, then:
Wheat leaf segments cv. Kanzler are placed on agar in a multiwell plate (24-well format) and sprayed with the formulated test compound diluted in water. The leaf disks are inoculated by shaking powdery mildew infected plants above the test plates 1 day after application. The inoculated leaf disks are incubated at 20° C. and 60% rh under a light regime of 24 h darkness followed by 12 h light/12 h darkness in a climate chamber and the activity of a compound is assessed as percent disease control compared to untreated when an appropriate level of disease damage appears on untreated check leaf segments (6-8 days after application).

The subject of data set [4] is Phaeosphaeria nodorum (Septoria nodorum). Put plainly: Phaeosphaeria nodorum (Septoria nodorum)/Wheat/Leaf Disc Preventative (Glume Blotch). The class given is in vivo. To be noted: Parastagonospora nodorum, foliar, wheat leaf disc preventative, compared to untreated control. On the procedure:
Wheat leaf segments cv. Kanzler are placed on agar in a multiwell plate (24-well format) and sprayed with the formulated test compound diluted in water. The leaf disks are inoculated with a spore suspension of the fungus 2 days after application. The inoculated test leaf disks are incubated at 20° C. and 75% rh under a light regime of 12 h light/12 h darkness in a climate cabinet and the activity of a compound is assessed as percent disease control compared to untreated when an appropriate level of disease damage appears in untreated check leaf disks (5-7 days after application).

Data set [5] concerns Monographella nivalis (Microdochium nivale). Briefly: Monographella nivalis (Microdochium nivale)/Liquid Culture (Foot Rot Cereals). To be noted: liquid culture, compared to untreated control. Format: cell-based. On the procedure:
(§1) Conidia of the fungus from cryogenic storage are directly mixed into nutrient broth (PDB potato dextrose broth). After placing a (DMSO) solution of test compound into a microtiter plate (96-well format), the nutrient broth containing the fungal spores is added.

Data set [6] deals with Mycosphaerella arachidis (Cercospora arachidicola). Put plainly: Mycosphaerella arachidis (Cercospora arachidicola)/Liquid Culture (Early Leaf Spot). Conditions: liquid culture, compared to untreated control. The class given is cell-based. The method, then:
as §1

The test system of data set [7] is Phytophthora infestans. Put plainly: whole plant or invertebrate. To be noted: in Solanum lycopersicum, foliar, read-out: control of Phytophthora infestans. Format: in vivo.
Data set [8] has as its system Plasmopara viticola. Put plainly: whole plant or invertebrate. Format: in vivo. Conditions: foliar, read-out: control of Plasmopara viticola.
Data set [9] relates to Puccinia recondita f. sp. tritici. Briefly: Puccinia recondita f. sp. tritici/Wheat/Leaf Disc Preventative (Brown Rust). Format: in vivo. Conditions: foliar, 200 ppm, wheat leaf disc preventative, compared to untreated control, read-out: control of Puccinia recondita f. sp. tritici.
Data set [10] has as its system Magnaporthe grisea (Pyricularia oryzae). Put plainly: whole plant or invertebrate. Format: in vivo. Conditions: foliar, read-out: control of Magnaporthe grisea.
The subject of data set [11] is Mycosphaerella graminicola (Septoria tritici). Put plainly: Mycosphaerella graminicola (Septoria tritici)/Liquid Culture (Septoria Blotch). Format: cell-based. Conditions: Zymoseptoria tritici; 20 ppm; liquid culture; compared to untreated control. The method, then:
Conidia of the fungus from cryogenic storage are directly mixed into nutrient broth (PDB potato dextrose broth). After placing a (DMSO) solution of test compound into a microtiter plate (96-well format), the nutrient broth containing the fungal spores is added. […] The data are presented as the percentage of disease control of each compound for the biological tests against G. lagenarium (Example B3), P. recondita preventative (Example B13), P. teres (Example B15) and M. graminicola (Example B19) as described above. The testing rates of each biological test is specifically described in table C1 below.

Data set [12] has as its system Puccinia recondita f. sp. tritici. Put plainly: Puccinia recondita f. sp. tritici/Wheat/Leaf Disc Curative (Brown Rust). Format: in vivo. Conditions: foliar, wheat leaf disc curative, compared to untreated control. The method, then: Wheat leaf segments cv. Kanzler are placed on agar in multiwell plates (24-well format). The leaf segments are inoculated with a spore suspension of the fungus. Plates are stored in darkness at 19° C. and 75% rh. The formulated test compound diluted in water is applied 1 day after inoculation. The leaf segments are incubated at 19° C. and 75% rh under a light regime of 12 h light/12 h darkness in a climate cabinet and the activity of a compound is assessed as percent disease control compared to untreated when an appropriate level of disease damage appears in untreated check leaf segments (6-8 days after application).

Data set [13] deals with Phakopsora pachyrhizi. Put plainly: Phakopsora pachyrhizi/Soybean/Preventative (Soybean Rust). Format: in vivo. Conditions: foliar, 288 h, 200 ppm, soybean leaf disc preventative, compared to untreated control, read-out: control of Phakopsora pachyrhizi.

As a reminder, the inhibition of growth is the relative decrease from the control value, in per cent. High values mean a strong effect, low ones a weak effect. The term melting point denotes the temperature, or range, at which the solid turns liquid. In turn, `CO/C=C(\Oc1cc(-n2ccc(Cl)n2)ccc1C)C(=O)OC` [Compound E-100, methyl (Z)-2-[5-(3-chloropyrazol-1-yl)-2-methyl-phenoxy]-3-methoxy-prop-2-enoate] returned a melting point of 150 to 152 °C. The inhibition of growth at 20 ppm in data set [1] is at least 80%. Besides, in data set [2], the inhibition of growth at 20 ppm is at least 80%. In addition, the pest or weed control at 200 ppm in data set [3] was at least 80%. In data set [4], this compound registered a pest or weed control at 200 ppm of at least 80%. Also, in [5], the inhibition of growth at 20 ppm was at least 80%. In data set [6], this compound yielded an inhibition of growth at 20 ppm of at least 80%. The pest or weed control at 200 ppm in [7] was at least 80%. The pest or weed control at 200 ppm in data set [8] is at least 80%. Also, the pest or weed control at 200 ppm in data set [9] was at least 80%. Besides, the pest or weed control at 200 ppm in [10] was at least 80%. Moreover, the inhibition of growth at 20 ppm in data set [11] was at least 80%.
For the compound `CO/C=C(\Oc1cc(-n2ccc(C(F)F)n2)ccc1C)C(=O)OC` [Compound E-96, methyl (Z)-2-[5-[3-(difluoromethyl)pyrazol-1-yl]-2-methyl-phenoxy]-3-methoxy-prop-2-enoate], the inhibition of growth at 20 ppm in data set [1], in data set [2], in [5], in [6] and in data set [11] was at least 80% throughout. In addition, the pest or weed control at 200 ppm in data set [3], in [4], in data set [7], in [8], in data set [12] and in data set [9] was at least 80% each time.
Turning to `CO/C=C(\Oc1cc(-n2ccc(C(F)(F)F)n2)ccc1Br)C(=O)OC` [Compound E-87, methyl (Z)-2-[2-bromo-5-[3-(trifluoromethyl)pyrazol-1-yl]phenoxy]-3-methoxy-prop-2-enoate], the inhibition of growth at 20 ppm in data set [1], in data set [2], in [5], in [6] and in data set [11] was at least 80% each time. Moreover, the pest or weed control at 200 ppm is at least 80% in data set [3]; at least 50% in data set [13]; at least 80% in [7]; at least 80% in [8]; at least 80% in [9].
With `CO/C=C(\Oc1cc(-n2ncc(C3CC3)n2)ccc1C)C(=O)OC` [Compound F-8, methyl (Z)-2-[5-(4-cyclopropyltriazol-2-yl)-2-methyl-phenoxy]-3-methoxy-prop-2-enoate], the inhibition of growth at 20 ppm in data set [1], in [2], in data set [5], in data set [6] and in data set [11] was at least 80% in each case. Further, the pest or weed control at 200 ppm in data set [3], in [4], in data set [7] and in [8] was at least 80% each time.
`CO/C=C(\Oc1cc(-n2ccc(C(F)F)n2)ccc1Br)C(=O)OC` [Compound E-86, methyl (Z)-2-[2-bromo-5-[3-(difluoromethyl)pyrazol-1-yl]phenoxy]-3-methoxy-prop-2-enoate]: the inhibition of growth at 20 ppm in data set [1], in data set [2], in data set [5], in data set [6] and in data set [11] was at least 80% throughout. Further, the pest or weed control at 200 ppm in [3], in data set [4], in data set [9] and in data set [10] was at least 80% each time.
On to `CCCc1nn(-c2ccc(C)c(O/C(=C\OC)C(=O)OC)c2)cc1Cl` [Compound E-6, methyl (Z)-2-[5-(4-chloro-3-propyl-pyrazol-1-yl)-2-methyl-phenoxy]-3-methoxy-prop-2-enoate], for which the inhibition of growth at 20 ppm in data set [1], in [2], in [5], in data set [6] and in [11] was at least 80% in each case. The pest or weed control at 200 ppm in [4], in data set [7], in [8], in [9] and in data set [10] was at least 80% each time.
`CO/C=C(\Oc1cc(-n2ccc(SC(F)(F)F)n2)ccc1C)C(=O)OC` [Compound E-61, methyl (Z)-3-methoxy-2-[2-methyl-5-[3-(trifluoromethylsulfanyl)pyrazol-1-yl]phenoxy]prop-2-enoate]: the melting point lay in the range of 137 to 139 °C. In data set [1], the inhibition of growth at 20 ppm is at least 80%. In data set [2], this compound registered an inhibition of growth at 20 ppm of at least 80%. The compound also displayed a pest or weed control at 200 ppm in data set [3] of at least 80%. Besides, the inhibition of growth at 20 ppm in [5] was at least 80%. This compound also displayed an inhibition of growth at 20 ppm in [6] of at least 80%. The pest or weed control at 200 ppm in data set [13] is at least 50%. For the same compound, the pest or weed control at 200 ppm in data set [7] was at least 80%. Further, in data set [8], the pest or weed control at 200 ppm is at least 80%. For the same compound, in [9], the pest or weed control at 200 ppm is at least 80%. Also, the pest or weed control at 200 ppm in data set [10] was at least 80%. This compound came in with an inhibition of growth at 20 ppm in [11] of at least 80%.
Take `CO/C=C(\Oc1cc(-n2ccc(C)n2)ccc1C)C(=O)OC` [Compound E-104, methyl (Z)-3-methoxy-2-[2-methyl-5-(3-methylpyrazol-1-yl)phenoxy]prop-2-enoate]: the inhibition of growth at 20 ppm in [1], in [2], in data set [5], in [6] and in data set [11] was at least 80% throughout. The pest or weed control at 200 ppm in data set [3], in [4], in [9] and in [10] was at least 80% throughout.
Regarding `CO/C=C(\Oc1cc(-n2ccc(CC#N)n2)ccc1C)C(=O)OC` [Compound E-33, methyl (Z)-2-[5-[3-(cyanomethyl)pyrazol-1-yl]-2-methyl-phenoxy]-3-methoxy-prop-2-enoate], the melting point lay within 120 to 123 °C. In addition, in [1], the inhibition of growth at 20 ppm was at least 80%. This compound also yielded an inhibition of growth at 20 ppm in [2] of at least 80%. Moreover, the inhibition of growth at 20 ppm in [5] is at least 80%. In data set [6], this compound showed an inhibition of growth at 20 ppm of at least 80%. For the same compound, the pest or weed control at 200 ppm in data set [8] is at least 80%. For the same compound, the pest or weed control at 200 ppm in data set [9] is at least 80%. The compound further registered an inhibition of growth at 20 ppm in data set [11] of at least 80%.
For the compound `CO/C=C(\Oc1cc(-n2cc(COC)cn2)ccc1C)C(=O)OC` [Compound E-51, methyl (Z)-3-methoxy-2-[5-[4-(methoxymethyl)pyrazol-1-yl]-2-methyl-phenoxy]prop-2-enoate], the inhibition of growth at 20 ppm in data set [1], in [2], in data set [5], in [6] and in data set [11] was at least 80% each time. Moreover, the pest or weed control at 200 ppm was at least 80% in [3]; at least 50% in data set [13]; at least 80% in data set [8]; at least 80% in data set [12]; at least 80% in data set [9]; at least 80% in data set [10].
